Experimental data published in patent US6130227A, “7-Substituted camptothecin derivatives and methods for inhibiting the growth of tumor cells therewith” (priority 1996, dated 2000).

Experiments:
[1] = Antitumor activity by the oral route; format: in vivo
[2] = test system: NCI-H460 human lung tumor xenograft growing i.p.; assay: Survival of nude mice bearing i.p. NCI-H460 tumor xenograft; format: in vivo
From the text: A preclinical efficacy study was designed to evaluate the antitumor activity of the compounds of the present invention in comparison with topotecan (a first generation camptothecin already in clinical trials) as reference drug. The human tumor line NCI-H460, a non small cell lung carcinoma, was chosen because of the high expression of topoisomerase I, the known target of camptothecin drugs. This tumor model is relatively resistant to in vivo treatment with conventional cytotoxic agents (e.g., doxorubicin, cisplatin). Tumor cells were injected i.p. into nude mice (2.5×10^6 cell/mouse) of about 10 weeks and 3 days later the drugs were injected in the peritoneal cavity (10 ml/kg b.w.) to allow a direct contact of the drugs with tumor cells. Both topotecan and the compound of formula (I) described in Example 1 below, were delivered q4dx4 times. This schedule has been reported as optimal for camptothecin drugs in other preclinical studies. Mice were observed daily for death. The antitumor activity of the drugs was expressed as T/C %, i.e. the ratio between the median survival time of the drug-treated mice (T) and survival of the control untreated mice (C)×100. Treated mice, dead before the first control mouse or shortly after treatment with reduced body weight, were considered dead for drug toxicity. Mice still alive over 100 days after tumor cell inoculum were considered as long-term survivors (LTS). […]

[3] = Experiment 1, 6.6 mg/kg i.p. q4d x 4
[4] = Experiment 1, 10 mg/kg i.p. q4d x 4
[5] = Experiment 1, 10 mg/kg i.p. q4d x 4, from day 3
[6] = Experiment 2, 10 mg/kg i.p. q4d x 4
[7] = Experiment 2, 10 mg/kg i.p. q4d x 4, from day 3
[8] = Experiment 2, 12 mg/kg i.p. q4d x 4
[9] = Experiment 2, 12 mg/kg i.p. q4d x 4, from day 3
[10] = Experiment 2, 14.4 mg/kg i.p. q4d x 4
[11] = Experiment 2, 14.4 mg/kg i.p. q4d x 4, from day 3

| SMILES | LTS (100 days) [2, 4] | No. of toxic/total no. mice [2, 4] | % T/C [2, 5] [%] | LTS (100 days) [2, 6] | % T/C [2, 7] [%] | LTS (100 days) [2, 8] | No. of toxic/total no. mice [2, 8] | % T/C [2, 9] [%] | LTS (100 days) [2, 10] | % T/C [2, 11] [%] | other results |
| --- | --- | --- | --- | --- | --- | --- | --- | --- | --- | --- | --- |
| CC[C@@]1(O)C(=O)OCc2c1cc1n(c2=O)Cc2c-1nc1ccccc1c2C#N [Example 1, 20S-camptothecin-7-carbonitrile] | 3/8 | 0/8 | 258 | 1/7 | 233 | 1/7 | 0/7 | 200 | 2/7 | 277 | Activity by the oral route ([1]; oral): active; Activity compared with topotecan ([1]; oral CPT83 vs topotecan i.v. with optimal treatment schedule): more active than topotecan; LTS (100 days) [2, 3]: 2/8; No. of toxic/total no. mice [2, 3]: 0/8; % T/C ([2]; Experiment 1, 6.6 mg/kg i.p. q4d x 4, from day 3): 157%; No. of toxic/total no. mice [2, 6]: 0/7; No. of toxic/total no. mice ([2]; Experiment 2, 14.4 mg/kg i.p. q4d x 4, 14.4 mg/kg): 1/7; No. of toxic/total no. mice ([2]; Experiment 2, 14.4 mg/kg i.p. q4d x 4, listed as CPT83, 14.4 mg/kg): 1; Tolerability compared with topotecan ([2]; NCI-H460 tumor xenograft): better tolerability than topotecan; T/C % values ([2]; at all doses tested): higher than 200%; Drug efficacy compared with topotecan ([2]; experiment 1, slowly-growing tumor): superior to that of topotecan; Efficacy in terms of T/C % compared with topotecan ([2]; experiment 2, rapidly growing tumor): comparable to that of topotecan |
| CC[C@@]1(O)C(=O)OCc2c1cc1n(c2=O)Cc2cc3c(CN(C)C)c(O)ccc3nc2-1 [Topotecan, reference compound] | 2/8 | 0/8 | 215 | 1/7 | 261 | 0/7 | 4/7 | 77 | 0/7 | 77 | No. of toxic/total no. mice [2, 10]: 5/7 |
